Test results from patent US20250177448A1, “NEW USE OF PEG-PHOSPHOLIPID MOLECULES” (ICOAT MEDICAL AB, priority 2022, published 2025).

Test system: porcine kidney transplant, ischemia reperfusion injury
Experiment: Porcine allogeneic survival transplantation model (SM)
Assay type: in vivo, pig
Settings: for IFNγ level / IL-1α level / IL-1β level / IL-2 level / IL-4 level / IL-6 level / IL-10 level / IL-12 level / IL-18 level: vs untreated control kidneys
Method: During and after surgery, systemic blood was collected for up to 4 days and analyzed for creatinine, sodium, potassium and phosphate (Section for Clinical Chemistry, Uppsala University Hospital).
Multiplex protein analyses using multiplex Luminex xMAP Technology (Millipore Corporation, Billerica, MA, USA) were performed using a porcine specific kit for 12 cytokines/chemokines: Interferon-gamma (INFγ), Interleukins IL-1b, IL-2, IL-1a, IL-1RA, IL-4, IL-6, IL-10, IL-18, IL-8, IL-12, and TNF. Plasma was incubated with agent-specific-coloured magnetic beads, thereafter with detection antibodies and streptavidin-phycoerythrin (Millipore Corporation). Plates were measured using a MAGPIX instrument (Luminex Corporation, Austin, TX, USA). Raw data [median fluorescence intensity (MFI)] was translated into protein concentration (ng/ml) using a standard curve.
These studies were approved by the Ethics Committee for Animal Experimentation, Uppsala, Sweden, Dnr C123/14. For each of these studies (SM and CLSM) five donor pigs and 10 recipient pigs of both sexes were used. All pigs were certified SPF pigs (Yorkshire×Hampshire) and bred at Lövsta University herd, SLU, Sweden. At arrival to SLU the pigs were 8 weeks old.
For the SM study, the pigs were selected after typing for Swine Leucocyte Antigen (SLA) class 1 in the following manner: the donor pigs were obtained from two litters and not related to any of the recipients. The recipient pigs were siblings, matched in pairs according to SLA class 1 (see below). For the CLSM study, all recipient pigs were siblings and not related to the donors, but these the pigs were not SLA-typed.
SM study: the kidneys were retrieved en bloc using the same procedure as in the ANSM study. Also here, the kidneys were exposed to an initial warm ischemia of less than 5 minutes. […] Post preservation, the kidneys were randomized to receive either PEG-phospholipid (15 mL, 2 mg/mL) or HTK solution at +4° C. by injection through the renal artery after clamping of the renal vein. During a 40-60 min incubation, the renal artery and vein were maintained clamped. The SM study comprised 6 kidneys treated with PEG-phospholipid and 4 control kidneys.
The recipient pigs underwent allogeneic single kidney transplantation. Through a 15-20 cm abdominal midline incision, the iliac vessels in the right iliac fossa were identified and carefully mobilized. The distal segment of the vena cava as well as the iliac artery (from its emergence from the aorta) were mobilized, sealing the surrounding lymphoid tissue. The renal graft was thereafter placed in the right iliac fossa in the proximity of the iliac vessels. The renal vein and artery were trimmed, and subsequently anastomosed in an end-to-side fashion to the recipient's right iliac artery and distal vena cava using a polypropylene 7/0 running suture (PROLENE®, Ethicon, US). The ureters were implanted by extravesical ureteroneocystostomy to the top of the bladder by 6-0 polydioxanone suture (PDS®, Ethicon, US). Thereafter, bilateral nephrectomy of the native kidneys was performed. The midline incision was closed by running a 2/0 polyglactin (VICRYL®, Ethicon, US) fascia suture and skin clips. No anticoagulants were given to the recipient. After the inguinal transplantation was completed, urine was collected directly from the bladder by cystocentesis, showing that all of the transplanted kidneys had started to produce urine soon after reperfusion. By using a urine stick the sample was analyzed for proteinurea and hematuria. The mean duration of the surgery was 2.5 hours (1.75-3.25 hours).
During and after transplantation, EDTA blood was collected from the local renal vein at 0, 15, 30 and 60 min after reperfusion, and systemic blood samples were obtained at 1, 2, 3, and 4 days after surgery. […]

[1] = 60 min following transplantation
[2] = 4 days following transplantation
[3] = kidney vein, 5 min, in most cases
[4] = up to 4 days post-transplantation

**Q.** With “N-(methylpolyoxyethylene oxycarbonyl)-1,2-dipalmitoyl-sn-glycero-3-phosphoethanolamine [PEG-phospholipid]” as the substance, how does the “binding of C3b in renal biopsies” value (5 min and necropsy day 4) read?
**A.** The value was “lower binding”.

**Q.** And the IFNγ level [1]?
**A.** The IFNγ level was “not any significant difference”.

**Q.** What about the IL-1α level [1] of the same substance?
**A.** Its IL-1α level is “not any significant difference”.

**Q.** And the IL-1β level [1]?
**A.** Its IL-1β level is “not any significant difference”.

**Q.** And the IL-2 level [1]?
**A.** The IL-2 level was “not any significant difference”.

**Q.** What about the IL-4 level [1] of the same substance?
**A.** The IL-4 level was “not any significant difference”.

**Q.** And the IL-6 level [1]?
**A.** Its IL-6 level is “not any significant difference”.

**Q.** And the IL-10 level [1]?
**A.** Its IL-10 level is “not any significant difference”.

**Q.** And the IL-12 level [1]?
**A.** The IL-12 level was “not any significant difference”.

**Q.** What about the IL-18 level [1] of the same substance?
**A.** The IL-18 level was “not any significant difference”.

**Q.** And the IFNγ level [2]?
**A.** Its IFNγ level is “significantly lower levels”.

**Q.** And the IL-1α level [2]?
**A.** Its IL-1α level is “significantly lower levels”.

**Q.** What about the IL-1β level [2] of the same substance?
**A.** The IL-1β level was “significantly lower levels”.

**Q.** What about the IL-2 level [2] of the same substance?
**A.** Its IL-2 level is “significantly lower levels”.

**Q.** And the IL-4 level [2]?
**A.** The IL-4 level was “significantly lower levels”.

**Q.** What about the IL-6 level [2] of the same substance?
**A.** Its IL-6 level is “significantly lower levels”.

**Q.** And the IL-10 level [2]?
**A.** The IL-10 level was “significantly lower levels”.

**Q.** What about the IL-12 level [2] of the same substance?
**A.** Its IL-12 level is “significantly lower levels”.

**Q.** And the IL-18 level [2]?
**A.** Its IL-18 level is “significantly lower levels”.

**Q.** What about the IL-1RA protein level (after 96 hours) of the same substance?
**A.** The IL-1RA protein level was “unaffected”.

**Q.** What about the IL-8 protein level (after 96 hours) of the same substance?
**A.** Its IL-8 protein level is “unaffected”.

**Q.** What about the IL-1a protein level [3] of the same substance?
**A.** The IL-1a protein level was “suppressed”.

**Q.** And the IL-12 protein level [3]?
**A.** Its IL-12 protein level is “suppressed”.

**Q.** And the creatinine levels post-transplantation (recipients' blood, 24-96 hours, vs control grafts)?
**A.** Its creatinine levels post-transplantation is “significantly lower”.

**Q.** What about the “C3a in blood samples” value [4] of the same substance?
**A.** Its value is “substantially lower”.

**Q.** And the “TAT in blood samples” value [4]?
**A.** Its value is “substantially lower”.

**Q.** And the “sC5b-9 in blood samples” value [4]?
**A.** The value was “substantially lower”.
